From US20160007541A1, “Increasing Harvest (Yield) of Crop Plants Utilizing Thermodynamic Laws on a Whole Plant Basis to Detect Optimal Periods for Exothermic Energy Versus Endothermic Energy Needs” (Stoller Enterprises, Inc., priority 2014, published 2016)

System: tomato plants
Experiment: Tomato yield, Brix and taste after cobalt via drip irrigation (Table 4)
Assay type: in vivo
Settings: base fertility plus cobalt @ 1 pt/acre over 5 weeks

[Co] [cobalt]
Taste test 14 scientific personnel (base 2): 2.8
% Brix (sugars) (base 4.8): 5.5%
Yield (No. of tons per acre) (base 29.6): 33.9 tons per acre
Yield (number of tomato fruits per acre × 1,000) (base 244): 288 fruits per acre × 1,000
